Where two headings read alike, the source gives them in different places. Marks after values point to notes of the source that are not given here.
Columns and labels:
[1] = human, in vivo
[2] = clinical; conditions: human, in vivo
[3] = Chemotherapy pharmacokinetics alone; conditions: for Change in the geometric mean chemotherapy pharmacokinetic parameters when given alone or in combination with cediranib: limited pharmacokinetic data; for AUC / Cmax: alone (cycle 1, day 1), geometric mean (CV%)
[4] = system: patients with advanced solid tumors; experiment: Safety and tolerability: adverse events graded by NCI CTC version 3.0; format: in vivo, human
[5] = system: patients with advanced solid tumors; experiment: Dose-limiting toxicities and maximum tolerated dose; format: in vivo, human; conditions: for MTD of cediranib: once-daily oral
[6] = Steady-state pharmacokinetics of cediranib given with chemotherapy; format: in vivo, human; conditions: for Css,max / AUC: geometric mean (CV%); for AUC / Tmax: human, plasma, oral; for AUC: AUCss; for Tmax: median (range)
[7] = system: advanced solid tumors; experiment: Tumor response evaluation; format: in vivo, human
[8] = ref Trial 2171IL0001, cited from earlier work; for Tmax: median (range)
[9] = system: patients with a broad range of advanced solid tumors; conditions: cited from earlier work
[10] = system: patients with advanced CRC; conditions: previous phase I study; cited from earlier work
[11] = all arms, cediranib with chemotherapy
[12] = 20 mg, Arm 1 (with mFOLFOX6), cediranib 20 mg, n=5
[13] = 20 mg, Arm 3A (with irinotecan), cediranib 20 mg, n=5
[14] = 20 mg, Arm 3B (with irinotecan and cetuximab), cediranib 20 mg, n=3
[15] = 30 mg, Arm 2 (with docetaxel), cediranib 30 mg, n=8

In the case of O=c1[nH]cc(F)c(=O)[nH]1 [5-FU], the Cmax [1] is reported as 544 (72.9) ng/mL.
Work on CC(=O)O[C@@]12CO[C@@H]1C[C@H](O)[C@@]1(C)C(=O)[C@H](O)C3=C(C)[C@@H](OC(=O)[C@H](O)[C@@H](NC(=O)OC(C)(C)C)c4ccccc4)C[C@@](O)([C@@H](OC(=O)c4ccccc4)[C@H]21)C3(C)C [Docetaxel] yielded an AUC ([2]; AUC) of 3770 ng·h/mL.
With CCc1c2c(nc3ccc(OC(=O)N4CCC(N5CCCCC5)CC4)cc13)-c1cc3c(c(=O)n1C2)COC(=O)[C@]3(O)CC [Irinotecan] the Cmax [1] was 3040 (18.3) ng/mL and the Cmax ([2]; Cmax) was 3290 ng/mL.
With O=C1[O][Pt]2([NH][C@@H]3CCCC[C@H]3[NH]2)[O]C1=O [Oxaliplatin, reference compound] the “Change in the geometric mean chemotherapy pharmacokinetic parameters when given alone or in combination with cediranib” value [3] was less than 2 fold.
With Nc1nc2[nH]cc(CCc3ccc(C(=O)N[C@@H](CCC(=O)O)C(=O)O)cc3)c2c(=O)[nH]1 [Pemetrexed] the AUC [1] was 295 (37.7)^e u.g.h/mL and the Cmax [1] was 180 (14.2)^e u.g/mL.
For CCc1c2c(nc3ccc(O)cc13)-c1cc3c(c(=O)n1C2)COC(=O)[C@]3(O)CC [SN38], the AUC ([3]; Arm 3A) was 595 (53.5) ng/mL•h, the Cmax ([3]; Arm 3A) was 35.4 (50.1) ng/mL and the AUC ([3]; Arm 3B (with cetuximab)) was 482 (22.3) ng/mL•h. For the same compound, the Cmax ([3]; Arm 3B (with cetuximab)) was 29.1 (21.0) ng/mL and the “Change in the geometric mean chemotherapy pharmacokinetic parameters when given alone or in combination with cediranib” value [3] was less than 2 fold.
For COc1cc2c(Oc3ccc4[nH]c(C)cc4c3F)ncnc2cc1OCCCN1CCCC1 [cediranib, Cediranib], the “Serious adverse events of hypertension” value ([4]; across all arms) was “Three”, the “CTC grade 1 hypertension” value ([4]; across all arms, n=59) was 21 patients and the “CTC grade 3 hypertension” value ([4]; across all arms, n=59) was “three”. For the same compound, the “CTC grade 3 leukopenia” value ([4]; across all arms, n=59) was “nine”, the “CTC grade 3 neutropenia” value ([4]; across all arms, n=59) was 11 patients and the “CTC grade 3 or 4 diarrhea of any causality” value ([4]; across all arms, n=59) was 12 patients. For the same compound, the “CTC grade 3 or 4 fatigue of any causality” value ([4]; across all arms, n=59) was 16 patients, the “CTC grade 3 or 4 leukopenia of any causality” value ([4]; across all arms, n=59) was 13 patients and the “CTC grade 3 or 4 neutropenia of any causality” value ([4]; across all arms, n=59) was 19 patients. The “CTC grade 4 leukopenia” value ([4]; across all arms, n=59) was “four”, the “CTC grade 4 neutropenia” value ([4]; across all arms, n=59) was 8 patients and the “Serious adverse event: fatigue” value ([4]; across all arms, number (%)) was 16 (27%) patients. For the same compound, the “Serious adverse event: leukopenia” value ([4]; across all arms, number (%)) was 12 (20%) patients, the “Serious adverse event: neutropenia” value ([4]; across all arms, number (%)) was 18 (30%) patients and the “Patients discontinued due to diarrhea” value ([4]; across the study) was “three”. For the same compound, the “Patients discontinued due to fatigue” value ([4]; across the study) was “two”, the “Abdominal pain, any grade (%), Total (n=59)” value [4, 11] was 16 (27%) and the “Alopecia, any grade (%), Total (n=59)” value [4, 11] was 15 (25%). The “Anorexia, any grade (%), Total (n=59)” value [4, 11] was 25 (42%), the “Decreased weight, any grade (%), Total (n=59)” value [4, 11] was 21 (36%) and the “Dehydration, any grade (%), Total (n=59)” value [4, 11] was 19 (32%). The “Dyspnea, any grade (%), Total (n=59)” value [4, 11] was 18 (31%), the “Headache, any grade (%), Total (n=59)” value [4, 11] was 16 (27%) and the “Leukopenia, any grade (%), Total (n=59)” value [4, 11] was 20 (34%). For the same compound, the “Nausea, any grade (%), Total (n=59)” value [4, 11] was 36 (61%), the “Neutropenia, any grade (%), Total (n=59)” value [4, 11] was 27 (46%) and the “Vomiting, any grade (%), Total (n=59)” value [4, 11] was 30 (51%). The “Adverse events of proteinuria (all CTC grade 1 or 2)” value ([4]; all study arms except arm 4) was “Seven”, the “Increases in blood TSH above the normal range (> 5 mU/L)” value ([4]; overall) was 26 patients and the “Neutrophil counts of less than 1×10^9/L” value ([4]; overall, n=59) was “Fourteen”. For the same compound, the “Patients discontinuing due to adverse events” value ([4]; total, number (%)) was 12 (20%) patients, the MTD of cediranib ([5]; in combination with docetaxel (arm 2)) was 30 mg and the “MTD of cediranib according to the protocol definition” value ([5]; in combination with irinotecan and cetuximab) was 20 mg. For the same compound, the MTD of cediranib ([5]; in combination with irinotecan) was 20 mg, the MTD of cediranib ([5]; in combination with mFOLFOX6) was 20 mg and the MTD of cediranib ([5]; in combination with pemetrexed (arm 4)) was 30 mg. For the same compound, the “Css,max” value ([6]; Arm 1 (with mFOLFOX6), cediranib 20 mg, n=5) was 65.3 (86.2) ng/mL, the “Css,max” value ([6]; Arm 2 (with docetaxel), cediranib 30 mg, n=8) was 62.5 (53.3) ng/mL and the “Css,max” value ([6]; Arm 3A (with irinotecan), cediranib 20 mg, n=5) was 76.0 (57.6) ng/mL. The “Css,max” value ([6]; Arm 3B (with irinotecan and cetuximab), cediranib 20 mg, n=3) was 50.9 (126) ng/mL, the “Css,max” value ([6]; Arm 4 (with pemetrexed), cediranib 30 mg, n=4) was 74.9 (31.6) ng/mL and the AUC [6, 12] was 986 ng·h/mL. The AUC [6, 13] was 1010 ng·h/mL, the AUC [6, 14] was 668 ng·h/mL and the Tmax [6, 12] was 4 h. It also gave a Tmax [6, 13] of 2.1 h, a Tmax [6, 14] of 4 h and an AUC [6, 15] of 1100 ng·h/mL. For the same compound, the Tmax [6, 15] was 5 h, the “Partial tumor responses, all arms” value ([7]; 46 patients with efficacy data, 35 evaluable by RECIST) was “four” and the “Median duration of treatment of the four patients with partial response” value ([7]; range 154-384) was 319 days. The “Css,max” value ([8]; single-agent cediranib 20 mg, multiple once-daily oral doses, n=11, geometric mean (CV%)) was 66.6 (52.9) ng/mL, the AUCss ([8]; single-agent cediranib 20 mg, n=11, geometric mean (CV%)) was 774 (51.6) ng/mL•h and the Tmax ([8]; single-agent cediranib 20 mg, n=11) was 3.0 (2.0, 6.4) h. For the same compound, the AUCss ([8]; single-agent cediranib 30 mg, n=12, geometric mean (CV%)) was 741 (48.7) ng/mL•h, the Tmax ([8]; single-agent cediranib 30 mg, n=12) was 2.1 (1.0, 4.0) h and the “Doses at which cediranib monotherapy was generally well tolerated” value [9] was no more than 45 mg/day. The “Recommended phase II dose in combination with mFOLFOX6” value [10] was 30 mg/day.

— publication PMC4102931 (Investigational new drugs, 2010)
